We go through four molecules from patent US5306722A, “Thymidine derivatives and therapeutic method of use” (Bristol-Myers Squibb Company, priority 1992, dated 1994).

The term Ki denotes the equilibrium dissociation constant of an inhibitor or competing ligand from its target. A lower Ki goes with tighter binding.

SMILES strings stand for the structures.

Chain of HSV-1 TK (P17402 whole entry, looked up): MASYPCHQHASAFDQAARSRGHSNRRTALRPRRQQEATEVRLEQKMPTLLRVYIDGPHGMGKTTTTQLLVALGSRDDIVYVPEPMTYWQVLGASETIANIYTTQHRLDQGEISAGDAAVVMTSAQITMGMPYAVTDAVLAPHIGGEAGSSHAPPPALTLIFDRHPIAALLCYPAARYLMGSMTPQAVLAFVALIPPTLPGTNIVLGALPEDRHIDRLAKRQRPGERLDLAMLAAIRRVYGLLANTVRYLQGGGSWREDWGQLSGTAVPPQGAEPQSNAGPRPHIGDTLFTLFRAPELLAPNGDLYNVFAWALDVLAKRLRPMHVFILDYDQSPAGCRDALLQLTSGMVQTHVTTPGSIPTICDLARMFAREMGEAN

The assay has as its target HSV-1 TK (Human alphaherpesvirus 1 strain KOS, UniProt P17402). The assay is described as follows: Thymidine kinase inhibitory assay. It is filed as biochemical. As to conditions: 1 μM [^3 H]thymidine, 5 mM ATP, pH 7.5, 37° C., 1 hour; 0-20 μM inhibitor; slope replots of Lineweaver-Burk plots. As to the method: The reaction (50 μl) was performed in: 50 mM Tris-HCl pH 7.5, 5 mM MgCl2, 30 mM KCl, 2 mM dithiothreitol, 5 mM ATP, 1 μM [^3 H]thymidine, 0-20 μM potential inhibitor, 0.075 mg/ml bovine serum albumin, 0.1 unit/ml HSV-1 TK. Incubation was at 37° C. for 1 hour. Samples (40 μl) were spotted on DE-81 filter disks, washed with 1 mM ammonium formate (pH 7), three times with water, twice with ethanol, and dried. Radioactivity was quantitated in a scintillation counter.
TK (thymidine kinase) was affinity purified from HSV-1 (KOS) infected cells by published procedures (Fyfe (1982) Mol. Pharmacol. 21:432-437 and Field et al. (1990) Antiviral Res. 13:41-52). One unit is defined as 1 nanomole thymidine phosphorylated per hour.
In Table 2, inhibition constants were determined from slope replots (1/slope vs [I]) of Lineweaver-Burk plots. "N" indicates the number of experiments, and each experiment was done in triplicate.
Regarding `CO[C@H]1O[C@@H](n2cc(C)c(=O)[nH]c2=O)C[C@@H]1O` (single isomer, unassigned) [Compound 2], the Ki amounted to 3.2 ± 0.3 µM.

As to `Cc1cn([C@H]2C[C@H](O)[C@@H](OCCc3ccccc3)O2)c(=O)[nH]c1=O` [Compound 12], the Ki came out at 26 µM.

For the molecule `Cc1cn([C@H]2C[C@@H](O)[C@H](OCCc3ccccc3)O2)c(=O)[nH]c1=O` [Compound 13], the Ki amounted to 4.3 ± 1.8 µM.

Take `Cc1cn([C@H]2C[C@@H](O)[C@H](OCc3ccc(Br)cc3)O2)c(=O)[nH]c1=O` [Compound 16]: affinity was put at a Ki of 10.1 ± 4.7 µM.
